Reference: PMC7587931, “Affinity of Antifungal Isoxazolo[3,4-b]pyridine-3(1H)-Ones to Phospholipids in Immobilized Artificial Membrane (IAM) Chromatography” (Molecules, 2020)

Key:
[1] = design: method as in PMID 31779124; details: RP-LC, determined previously; cited from earlier work
[2] = IAM-HPLC affinity to phospholipids (CHIIAM, gradient elution); type: physicochemical; details: IAM.PC.DD2 column, gradient 0-85% acetonitrile, 10 mM phosphoric buffer pH 7.4, 30.0 °C
Description: Thus, the CHI/CHIIAM values range from 0 to 100, corresponding to the concentration of acetonitrile in the mobile phase and reflecting the nature of the target compound: low and high values correspond to hydrophilic and lipophilic molecules, respectively.
All the HPLC experiments were carried out using a Prominence-1 LC-2030C 3D HPLC system (Shimadzu, Japan) equipped with a Diode-Array Detection (DAD) detector and an IAM.PC.DD2 column (10 × 4.6 mm; particle size 10.0 µm with an IAM guard column; Regis Technologies, Morton Grove, IL, USA). The LabSolution system (version 5.90, Shimadzu, Japan) was applied to control the HPLC system and for data collection. Before analysis, stock solutions of solutes were diluted to obtain concentrations of 100 μg/mL; the injected volume was 5 μL. The IAM-HPLC analyses were carried with a linear gradient of 0–85% phase B (where phase A was a 10 mM phosphoric buffer at pH 7.4 and phase B was acetonitrile) at a flow rate of 1.5 mL/min. The temperature of the chromatographic column was controlled and set to 30.0 °C and the analysis time was 6.5 min. The CHIIAM indices of the studied compounds were obtained using a calibration set of reference substances using the protocol proposed by Valko et al. [33]. Each HPLC analysis was run in triplicate.

## O=c1onc2[nH]c3ccccc3cc1-2 [Compound 1]
[1]
  logkw: 2.36

## O=c1on(Cc2ccccc2)c2nc3ccccc3cc12 [Compound 2]
[1]
  logkw: 3.98

## Cn1oc(=O)c2cc3ccccc3nc21 [Compound 3]
[1]
  logkw: 2.87

## CC(=O)n1oc(=O)c2cc3ccccc3nc21 [Compound 4]
[1]
  logkw: 2.79

## O=C(c1ccccc1)n1oc(=O)c2cc3ccccc3nc21 [Compound 5]
[1]
  logkw: 3.76

## Cc1cc(C)c2c(=O)on(Cc3ccccc3)c2n1 [Compound 6]
[1]
  logkw: 3.68

## CC(=O)n1oc(=O)c2c(C)cc(C)nc21 [Compound 7]
[1]
  logkw: 2.53

## CCn1oc(=O)c2c(C)cc(C)nc21 [Compound 8]
[1]
  logkw: 2.90

## Cc1cc(C)c2c(=O)on(C(=O)c3ccccc3)c2n1 [Compound 9]
[2]
  CHIIAM: 29.99
[1]
  logkw: 2.77

## Cc1cc(C)c2c(=O)on(C)c2n1 [Compound 10]
[1]
  logkw: 2.58

## COc1cc(Cn2oc(=O)c3c(C)cc(C)nc32)cc(OC)c1 [Compound 11]
[1]
  logkw: 3.83

## CCCCn1oc(=O)c2c(C)cc(C)nc21 [Compound 13]
[1]
  logkw: 3.69

## Cc1cc(C)c2c(=O)o[nH]c2n1 [Compound 14]
[2]
  CHIIAM: migrated together with the front of the mobile phase
[1]
  logkw: 2.07

## CCCn1oc(=O)c2c(C)cc(C)nc21 [Compound 15]
[1]
  logkw: 3.28

## C#CCn1oc(=O)c2c(C)cc(C)nc21 [Compound 16]
[1]
  logkw: 2.81

## Cc1cc(C)c2c(=O)on(C(=O)c3ccc(F)cc3)c2n1 [Compound 17]
[1]
  logkw: 3.70

## COc1cc(Cn2oc(=O)c3c(C)cc(C)nc32)cc(OC)c1OC [Compound 18]
[1]
  logkw: 3.67

## COc1ccc2nc3c(cc2c1)c(=O)on3C [Compound 19]
[1]
  logkw: 3.14

## Cn1oc(=O)c2cc3cc(F)ccc3nc21 [Compound 20]
[1]
  logkw: 2.97

## Cn1oc(=O)c2cc3cc(Cl)ccc3nc21 [Compound 21]
[2]
  CHIIAM: 33.40
[1]
  logkw: 3.33

## Cc1cc2cc3c(=O)on(C)c3nc2cc1C [Compound 22]
[1]
  logkw: 3.50

## Cc1ccc2cc3c(=O)on(C)c3nc2c1 [Compound 24]
[1]
  logkw: 3.21

## COc1ccc(OC)c2nc3c(cc12)c(=O)on3C [Compound 25]
[1]
  logkw: 3.23

## Cc1ccc2nc3c(cc2c1)c(=O)on3C [Compound 26]
[1]
  logkw: 3.24
